From patent US20100016275A1, “NOVEL COMPOUND 395” (priority 2008, published 2010) come the findings set out here.

Data set [1] can be described thus: Human hepatic intrinsic clearance (CLint) assay in human hepatocytes. The data set is classed as in vitro ADME. The settings on record: human, human hepatocytes in suspension, pH 7.4, human hepatocytes. The source says: The hepatic metabolic component of human clearance is predicted from scaled in vitro intrinsic clearance (CLint) data from human hepatocytes (see Chem Biol Interact. 2007, 168(1), 2-15) and from the extent of human blood binding, primarily due to plasma protein binding. The well stirred model of the liver is a model for predicting blood clearance in the liver from intrinsic clearance (CLint) determined using hepatocytes. (see Drug Metab Dispos. 2005, 33(9), 1304-11) The model is usually written as:
Human Hepatic Intrinsic Clearance (CLint) Assay
For the majority of drugs, a large component of their plasma clearance is contributed by hepatic metabolism. Intrinsic clearance (CLint) is a measure of the potential of a compound to undergo metabolism and can be related to hepatic clearance in vivo from a consideration of plasma protein binding and liver blood flow. Therefore, CLint may be used as an index of the relative metabolic stability of compounds within a project and compared with other external probe substrates. Furthermore, the measurement of CLint in vitro within a research project, where hepatic metabolic clearance is known to be an issue, may be a useful means of understanding the different pharmacokinetic behaviour of the compounds in vivo.
This following description outlines a method for estimating intrinsic clearance (CLint) from human hepatocyte incubations using suspension buffer containing no HSA (human serum albumin) and maintaining physiological conditions of pH 7.4.
Hepatocytes were prepared by a two-step in situ collagenase perfusion method of a portion of the human liver, suspended in protein free buffer (see below) and stored on ice, prior to incubation.
This method is based on the procedure of Seglen (Preparation of rat liver cells. I. Effect of Ca^2+ on enzymatic dispersion of isolated, perfused liver. Exptl. Cell Res., 1972, 74, p450 and preparation of isolated rat liver cells. Methods Cell Biol., 1976, 13, p 29) which itself was developed from the one step procedure of Berry and Friend (High-yield preparation of isolated rat liver parenchymal cells. J. Cell Biol., 1969, 43, p 506).
Suspension medium: 2.34 g Na HEPES, 2.0 g HSA fraction V, 0.4 g D-fructose, DMEM (1 L powder equivalent, Sigma; w/1 g.1^−1 glucose, w/Na pyruvate, w/o NaHCO3, w/o phenol red), made up to 1 L with Milli-Q water, pH to 7.4 with 1 M HCl. (Protein free suspension buffer is made omitting the 2.0 g HSA fraction V)
The capsule of a liver which has been perfused with digestion medium was cut open and the cells gently teased out into the medium. The cells were then passed through a mesh (approximately 250 μM) into a beaker containing 50 ml suspension medium. The mesh was rinsed through into the beaker with further suspension buffer to a final volume of 100 ml. The suspension was divided between two plastic 50 mL centrifuge tubes (pre-cooled on ice) and centrifuged at 50×g for 2 min at 4° C. The supernatants were decanted and the pellets re-suspended in protein free suspension buffer to the original volume. The centrifugation step was repeated and each pellet re-suspended in approximately 10 ml protein free suspension buffer. The suspensions were combined and the volume made up to 50 mL with protein free suspension buffer.
An aliquot of cell suspension (0.2 mL) was diluted with 0.2 ml protein free suspension buffer. To the diluted cells was added 0.2 mL trypan blue solution (0.4% w/v) followed by gentle mixing. After 1 min, a pasteur pipette was used to withdraw a sample and fill an Improved Neubauer Counting Chamber by capillary action. The cells were then counted (central square only) using an inverted microscope, viable cells being able to exclude the dye and non-viable cells being stained. The percentage of viable cells in the preparation was calculated thus: […]

Data set [2] is described as follows: Measurement of plasma protein binding (PPB) by equilibrium dialysis. Type of data set: in vitro ADME, human. The settings on record: human, plasma, pH 7.4, human plasma, equilibrium dialysis, 37° C., pH 7.4; read-out: Human plasma protein binding PPB (% free). As to the method:
(§1) Measurement of Plasma Protein Binding (PPB)
(§2) The extent of binding of a drug to plasma proteins is a crucial factor in determining its in vivo potency and pharmacokinetics. The method used for determining the extent of plasma protein binding involves equilibrium dialysis of the compound between plasma and buffer at 37° C. The concentrations of compound in the plasma and buffer are then determined using high pressure liquid chromatography (HPLC) with mass spectroscopy (MS) detection. The dialysis method involves the use of mixtures of up to 10 compounds simultaneously. It has been shown that at the concentrations used in the assay, there is no significant difference in the results when compounds are run singly or in mixtures.
(§3) Membranes (molecular weight cut-off 5000) were first prepared by soaking in the dialysis buffer for a minimum of 1 hour. The dialysis membranes were then mounted into the dialysis cells.
(§4) Stock solutions of compounds in dimethylsulphoxide (DMSO) were prepared. This, and all subsequent liquid handling steps, were normally done using a Tecan liquid handling robot. Mixtures of up to five compounds were used. The concentration of each compound in a mixture was normally 1 mM. The mixtures were chosen such that each mixture contains compounds that all have at least a 5 unit difference in molecular weight from one another.
(§5) Frozen plasma (EDTA anticoagulant) was normally used for the human plasma binding experiment. The pH of the plasma was adjusted to 7.4 using 1 M HCl immediately before use.
(§6) The stock DMSO solution of compounds (7.5 μL) was then added to the dialysis cells along with plasma (750 μl). This was done in duplicate for each mixture. This gave a 1% DMSO in plasma solution with each compound at a concentration of 10 μM (if the stock solution was the standard 1 mM). The dialysis cells were then sealed, secured in a Dianorm rotator unit and equilibrated for 18 hours at 37° C. While the dialysis cells were being equilibrated, the DMSO stock solutions were used for generating optimised HPLC/MS methods for use in the final analysis of the plasma and buffer samples.
(§7) After equilibration, the cells were opened and a Tecan liquid handling robot was used to remove aliquots from the plasma and buffer sides of each of the dialysis cells. Blank plasma was then added to the buffer samples and buffer added to the plasma samples such that each sample was in a matrix of 6-fold diluted plasma. Standards were then prepared from the DMSO stock solutions and blank 6-fold diluted plasma. The concentrations of the four standards were normally 50 nM, 150 nM, 500 nM and 2500 nM.
(§8) The samples and standards were then analysed using HPLC with MS detection, which allows deconvolution of the mixtures of compounds. The HPLC method involved a forward flushing column switching technique that allows direct injection of the diluted plasma.
(§9) The chromatograms were processed using MassLynx software that automatically i 5 calculates a calibration curve for each compound in a mixture and then interpolates the concentrations of buffer and plasma samples. These concentrations still need corrections for the dilution of the plasma. The percentage bound was calculated from the MassLynx data using the following equation: […]
(§10) The factor of 1.2 in the numerator accounts for the small dilution of the aqueous samples with plasma. The factor of 6 in the denominator serves to correct for the 6-fold dilution of the plasma samples with buffer.
(§11) The % free (100-% bound) for each compound was calculated from the concentration data, and then recorded.
On the technique in general: In equilibrium dialysis only unbound substance equilibrates across the membrane.

For data set [3], the system named is human plasma proteins. The data set is described as above. The settings on record: human plasma; for Human plasma protein binding PPB (% free): equilibrium dialysis, 37° C., pH 7.4. Type of data set: in vitro ADME. On the procedure:
as §1, §2, §3, §4, §5, §6, §7, §8, §9, §10, §11

Setting [4] is: protein free suspension buffer, pH 7.4, 37° C., read-out: Human hepatocyte Intrinsic-clearance assay CLint.
[5] abbreviates: unit inferred, read-out: hepatic intrinsic clearance (Clint).

Structures are written as SMILES. Read-outs that look alike come from different tables or passages of the source.

Consider `Cc1cccc(CSc2nc(N[C@H](C)CO)cc(NS(=O)(=O)N3CCC3)n2)c1F` [Example 40], for which the hepatocyte CLint at 1 µM in data set [1] (setting [4]) amounted to 9 µL/min/1e6 cells. Also, the fraction unbound at 18 h, 10 µM in data set [2] is less than 0.002.

`Cc1ccc(CSc2nc(N[C@H](C)CO)cc(NS(=O)(=O)N3CCC3)n2)c(F)c1C` [Example 42]: in data set [3], the “Human plasma protein binding PPB (% free)” value was less than 0.2 % free.

Take `Cc1cccc(CSc2nc(N[C@H](C)CO)cc(NS(C)(=O)=O)n2)c1F` [Example 39]: in data set [1] (setting [4]), the hepatocyte CLint at 1 µM is 5.1 µL/min/1e6 cells. The fraction unbound at 18 h, 10 µM in data set [2] worked out at 0.01.

As for `C[C@@H](Nc1cc(NS(=O)(=O)N2CCC2)nc(SCc2cccc(F)c2F)n1)[C@@H](O)CO` [Example 1, N-(2-[(2,3-difluorobenzyl)thio]-6-{[(1R,2R)-2,3-dihydroxy-1-methylpropyl]amino}pyrimidin-4-yl)azetidine-1-sulfonamide], the hepatocyte CLint at 1 µM in data set [1] (setting [4]) and in data set [1] (setting [5]) was 2.1 µL/min/1e6 cells throughout. For the same molecule, the fraction unbound at 18 h, 10 µM in data set [2] came to 0.019. Besides, the “free fraction in human plasma (in words)” value in data set [3] is given as “favourable free fraction in human plasma”.

`Cc1ccc(CSc2nc(N[C@H](C)CO)cc(NS(=O)(=O)N3CCC3)n2)c(F)c1C` [Example 41]: in data set [1] (setting [4]), the hepatocyte CLint at 1 µM worked out at 12 µL/min/1e6 cells. In addition, the “Human plasma protein binding PPB (% free)” value in data set [3] turned out to be 0.6 % free.

Turning to `CS(=O)(=O)Nc1cc(NC(CO)CO)nc(SCc2ccccc2)n1` [Example 21], the hepatocyte CLint at 1 µM in data set [1] (setting [4]) and in data set [1] (setting [5]) was 2.3 µL/min/1e6 cells each time.
